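Values below derive from 48-hour exposures of cells grown in 96-well plates, with endpoints linearly interpolated between the two concentrations bracketing the appropriate inhibition level. GI50 = concentration required for 50% inhibition of growth. TGI: total growth inhibition.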
Legend:
Experiment in all cases: NCI tumour cell line growth inhibition, 48 h
BT-549 breast = test system: BT-549 breast
HS 578T breast = test system: HS 578T breast
MALME-3M melanoma = test system: MALME-3M melanoma
MDA-N = test system: MDA-N
NCI-H522 lung = test system: NCI-H522 lung
PC-3 prostate = test system: PC-3 prostate
T-47D breast = test system: T-47D breast
HOP-18 NSCLC = test system: HOP-18 NSCLC
LXFL 529 NSCLC = test system: LXFL 529 NSCLC
RXF-631 renal = test system: RXF-631 renal
SK-OV-3 ovarian = test system: SK-OV-3 ovarian
MCF7 breast = test system: MCF7 breast
P388 leukemia = test system: P388 leukemia
P388/ADR leukemia = test system: P388/ADR leukemia
SN12K1 renal = test system: SN12K1 renal
XF 498 CNS = test system: XF 498 CNS

SMILES	TGI (BT-549 breast) [µM]	TGI (HS 578T breast) [µM]	TGI (MALME-3M melanoma) [µM]	TGI (MDA-N) [µM]	TGI (NCI-H522 lung) [µM]	TGI (PC-3 prostate) [µM]	TGI (T-47D breast) [µM]	TGI (HOP-18 NSCLC) [µM]	TGI (LXFL 529 NSCLC) [µM]	TGI (RXF-631 renal) [µM]	TGI (SK-OV-3 ovarian) [µM]	TGI (MCF7 breast) [µM]	TGI (P388 leukemia) [µM]	TGI (P388/ADR leukemia) [µM]	TGI (SN12K1 renal) [µM]	TGI (XF 498 CNS) [µM]	GI50 (BT-549 breast) [µM]
Cc1ccc(S(=O)(=O)OC2C(C3COC(C)(C)O3)OC3OC(C)(C)OC32)cc1 (centres undefined)	> 100	> 100	> 100	> 100	> 100	> 100	> 100	–	–	–	–	–	–	–	–	–	–
Clc1c(Cl)c2c(Cl)c(Cl)c1C[P+](c1ccccc1)(c1ccccc1)CC[P+](c1ccccc1)(c1ccccc1)Cc1c(Cl)c(Cl)c(c(Cl)c1Cl)C[P+](c1ccccc1)(c1ccccc1)CC[P+](c1ccccc1)(c1ccccc1)C2	–	–	7	–	9.26	–	–	20.6	8.12	23.7	21.7	–	–	–	–	–	–
Cc1ccc(-c2csc(=Nc3c(C)n(C)n(-c4ccccc4)c3=O)n2CCO)cc1	> 100	–	–	> 100	–	> 100	–	–	–	–	> 100	> 100	–	–	–	–	–
Cn1c(-c2ccc(/C=N\N3CCN(/N=C/c4ccc(-c5c[n+]6ccsc6n5C)cc4)CC3)cc2)c[n+]2ccsc12	90.3	80.8	–	> 100	> 100	> 100	53.8	–	–	–	> 100	> 100	–	–	–	–	–
O=[n+]1c2ccccc2n([O-])c2cc(Br)ccc21	–	> 100	39.7	–	30.2	–	45.9	–	–	–	–	53	–	–	–	–	–
CC(C)[C@](O)(C(=O)OCC1CC[N+]2([O-])CC[C@@H](O)C12)[C@H](C)O (some centres undefined)	–	–	> 256	–	> 375	–	–	> 375	–	–	> 375	> 375	> 375	> 375	> 375	> 375	–
CC#C[I+]c1ccccc1	–	–	38.2	–	13.1	–	–	34.4	27.1	> 100	99.1	–	–	–	–	33.5	–
COc1cc2c3c(n(CCCNCCCNCCCn4c5c(c6ccccc6c4=O)C(=O)c4ccccc4-5)c(=O)c2cc1OC)-c1cc2c(cc1C3=O)OCO2	1.1	–	–	–	–	–	–	–	–	–	–	–	–	–	–	–	< 0.01
CCCCN1C(=O)NC(Cc2ccccc2)C1=O (centres undefined)	–	–	> 100	–	> 100	–	–	> 100	> 100	–	–	–	–	–	–	> 100	–
CC(C)(C)C(=O)C(C(c1ccccc1)N1CCOCC1)N1CCOCC1 (centres undefined)	> 100	> 100	> 100	> 100	> 100	> 100	> 100	–	–	–	–	–	–	–	–	–	–
CCO[C@]12C[C@H](OC)[C@@]3(O)CC(C1[C@H]3O)C13C4C2[C@H](OC)C1[C@](COC)(CN4CC)[C@H](O)C[C@@H]3OC (some centres undefined)	–	–	–	–	–	–	–	–	> 100	–	> 100	–	–	–	–	–	–
COc1ccc(N2C(=O)C3c4[nH]c5cccc(C)c5c4C4CCC(C(C)(C)C)CC4C3C2=O)cc1 (centres undefined)	–	> 10	> 10	> 10	> 10	> 10	> 10	–	–	–	> 10	> 10	–	–	–	–	–
CCCCCCCCCCCCCCCCOCC(COP(=O)([O-])OCC[N+](C)(C)C)OCCCCCCCCCCCCCCCC (centres undefined)	–	–	> 100	–	> 100	–	–	> 100	–	–	> 100	–	> 100	> 100	> 100	> 100	–
